Measured values published in patent publication US8399026B2, “Peptides isolated from spider venom, and uses thereof” (priority 2009, dated 2013).
Entries after “also recorded” stand apart in the source; their conditions may differ.

Columns and labels:
spinal-ligated rats = type: in vivo, rat
Procedure: This study aimed to evaluate the analgesic indications of compound C using the Chung model of neuropathic pain in rats. This study was performed at PsychoGenics, Inc., headquartered at 765 Old Saw Mill River Road, Tarrytown, N.Y.
Male Sprague Dawley rats (100-125 g) from Harlan (Indianapolis, Ind.) were used in the study. Upon receipt, rats were assigned unique identification numbers and were group housed with 3 rats per cage in polycarbonate cages with micro-isolator filter tops. All rats were examined, handled, and weighed prior to initiation of the study to assure adequate health and suitability. During the course of the study, 12/12 light/dark cycles were maintained, with lights on at 7:00 am EST. The room temperature was maintained between 20 and 23° C. with a relative humidity maintained around 50%. Chow and water were provided ad libitum for the duration of the study.
All compounds were administered at a dose volume of 5 ml/kg, q.d. for 5 days (Days 17-21 post-surgery). Reference compound: Gabapentin (100 mg/kg; TRC, Lot No. 1-SWM-154-1) was dissolved in 0.5% carboxy-methylcellulose (CMC) in water and administered orally. Test Compound: Compound C (0.25, 0.625, and 1.25 mg/kg; Lot n/a) was dissolved in distilled H2O to a stock concentration (20×), divided into single-use aliquots, and frozen. On each test day, one aliquot was thawed and diluted 20-fold with PBS (pH 7.2), and used as stock for formulation of test doses. Compound C was administered subcutaneously.
Under general anesthesia with continuous inhalation of isoflurane, surgery was performed with aseptic procedures in surgery unit. The skin at the area of the lower lumber and sacral level of the rat was shaved and disinfected with betadine and alcohol. Sterile ophthalmic ointment was used to lubricate the eyes. Animals were observed continuously for the level of anesthesia, testing for the animal's reflex response to tail or paw pinch and closely monitoring the animal's breathing. A heating pad was used to maintain body temperature at 37° C. while the animals recovered from anesthesia. A left longitudinal incision at the level next to the vertebral column was made and the left paraspinal muscles were separated. The transverse process of L6 was removed and nearby connective tissue cleaned to expose L5 and L6 spinal nerves. After the nerves were isolated and clearly visualized, 4-0 silk threads were used to ligate the left L5. The muscles were sutured with 4-0 silk threads and the wound closed by staples. All rats received an analgesic (buprenorphine, 0.05 mg/kg, s.c.) immediately before and 6 hours after surgery. Each rat was monitored until awake and moving freely around the recovery chamber. Animals were then single-housed for the duration of the study. Rats were allowed to recover for 2 weeks after surgery prior to testing.
Withdrawal from a mechanical stimulus was measured by applying von Frey (VF) filaments of ascending bending force to the plantar surface of the hind paws (ipsilateral and contralateral). A positive response was defined as withdrawal from the von Frey filament. Confirmation of the paw withdrawal threshold (PWT) is tested by assessing the response to the filament above and below the withdrawal response.
Rats were brought to the experimental room and allowed to habituate in the room for one hour prior to testing, and acclimated to the observation chambers for 15 minutes prior to taking PWT measurements.
Pre-operative baseline testing: Prior to surgery, all rats were tested using the VF test.
Post-operative baseline testing: On Day 14 following surgery, baseline responses were taken from all surgically-operated rats, and an ipsilateral PWT greater than 4.5 g was used as an exclusion criterion (13 rats excluded). Rats were subsequently balanced and assigned to treatment groups (n=10 per group) based on their post-op PWT values. […]

[1] = system: mouse embryonic stem cells derived cardiomyocytes (mES-CM); type: cell-based
[2] = baseline of group assigned to 100 mg/kg, mean ± SEM

SMILES | ipsilateral paw withdrawal threshold compared to vehicle, chronic (spinal-ligated rats; 100 mg/kg orally q.d. 5 days, Day 21, all time points) | ipsilateral paw withdrawal threshold compared to vehicle, acute (spinal-ligated rats; 100 mg/kg orally, Day 17, data collapsed across 1 and 3 hour time points) | time dependence of effect on ipsilateral paw withdrawal threshold, chronic (spinal-ligated rats; 100 mg/kg orally, Day 21, 1 hr. versus 3 hr. post-administration) | ipsilateral paw withdrawal threshold (PWT), summary (spinal-ligated rats; 100 mg/kg, acute or 5-day administration, 1 and 3 hours following administration) | Contralateral paw withdrawal threshold prior to drug administration (spinal-ligated rats; [2]) | Ipsilateral paw withdrawal threshold prior to drug administration (spinal-ligated rats; [2]) | signs of sedation or toxicity (spinal-ligated rats; during pretreatment or testing, gabapentin 100 mg/kg orally, compound C 0.25, 0.625, 1.25 mg/kg subcutaneously) | effect of positive control on action potential generation in cardiomyocytes [1]
NCC1(CC(=O)O)CCCCC1 [Gabapentin] | significantly increased | significantly increased | significantly greater at 1 hr. compared to 3 hr. post-administration | significantly increased | 48.70 ± 5.83 | 2.94 ± 0.29 | not observed | –
NC1=N[C@H](O)[C@H]2[C@H]3O[C@]4(O)O[C@@H]([C@@H](O)[C@@]2(N1)[C@@H]4O)[C@]3(O)CO [TTX, Tetrodotoxin] | – | – | – | – | – | – | – | only the higher dose inhibited action potential generation; also recorded: quite evident; also recorded: significant action
